Measurements: patent publication US9289398B2, “Methods for the production of functional protein from DNA having a nonsense mutation and the treatment of disorders associated therewith” (PTC Therapeutics, Inc., priority 2006, dated 2016)

Tests used:
Type in all cases: in vivo, human
[1] = Safety and compliance, additional DMD Phase 2 study (26 boys)
Protocol: An additional Phase 2 study was carried out as follows to evaluate 3-[5-(2-fluoro-phenyl)-[1,2,4]oxadiazol-3-yl]-benzoic acid safety, compliance, PK, effects on full-length muscle dystrophin protein expression, and clinical activity in patients with nonsense-mutation-mediated DMD.
(§1) 3-[5-(2-fluoro-phenyl)-[1,2,4]oxadiazol-3-yl]-benzoic acid was administered orally for 28 days at dose levels of 4, 4, 8 mg/kg (low dose); 10, 10, 20 mg/kg (mid dose); and 20, 20, 40 mg/kg (high dose) after breakfast, lunch, and dinner, respectively. 26 boys (ages: 5-13 years; stop codons: 15 UGA, 6 UAG, 5 UAA; baseline serum CK: 8,645-49,500 IU; steroid use: 19/26) completed 3-[5-(2-fluoro-phenyl)-[1,2,4]oxadiazol-3-yl]-benzoic acid at the low (n=6) or mid (n=20) dose levels. […] Compliance was >98% for both dose levels. Day 1 and Day 28 PK indicate stable plasma exposures over time; however, exposures were lower than in 3-[5-(2-fluoro-phenyl)-[1,2,4]oxadiazol-3-yl]-benzoic acid-treated healthy adult volunteers and cystic fibrosis patients. […] Relative to baseline, post-treatment increases in in vivo dystrophin expression occurred in 4/6 (67%) (90% CI 27-94%) and 10/20 (50%) (90% C1-30-70%) boys at low and mid doses, respectively.

[2] = Pharmacokinetics, DMD Phase 2 interim analysis; settings: for Cmin: DMD patients, 4, 4, 8 mg/kg
Protocol: (§2) 3-[5-(2-Fluoro-phenyl)-[1,2,4]oxadiazol-3-yl]-benzoic acid is provided in a formulation described herein. Treatment is administered over 28 days for each treatment cohort. An initial cohort of patients are treated daily for 28 days with 3-[5-(2-fluoro-phenyl)-[1,2,4]oxadiazol-3-yl]-benzoic acid at a given dose level (e.g., 4-, 4-, and 8-mg/kg) TID. If the initial patients tolerate the drug, then a second cohort of patients receives 3-[5-(2-fluoro-phenyl)-[1,2,4]oxadiazol-3-yl]-benzoic acid at a higher dose level (e.g., 10-, 10-, and 20-mg/kg) TID. Thus, each patient receives a total of 84 doses of 3-[5-(2-fluoro-phenyl)-[1,2,4]oxadiazol-3-yl]-benzoic acid. After the end of 28 days of treatment, each patient is followed for an additional 28 days without treatment.
At each dose level, it is recommended that 3-[5-(2-fluoro-phenyl)-[1,2,4]oxadiazol-3-yl]-benzoic acid be taken TID at 6-, 6-, and 12-hour (±˜30 minutes) intervals. Ideally each dose is taken within ˜30 minutes after a meal (e.g., ˜7:00 AM after breakfast, ˜1:00 PM after lunch, and ˜7:00 PM after dinner). While it is realized that variations in dosing schedule may occur in the outpatient setting, it is recommended that the prescribed regimen (including dosing intervals and the relationship of dosing to meals) be followed closely on the days of PK sample collection. Clinical endpoints are evaluated using the procedures set forth above.
Six patients were administered 3-[5-(2-fluoro-phenyl)-[1,2,4]oxadiazol-3-yl]-benzoic acid TID in a regimen consisting of 4 mg/kg with breakfast, 4 mg/kg with lunch, and 8 mg/kg with supper, for a total daily dose of 16 mg/kg. All patients were ambulatory, but had characteristic signs and symptoms of DMD, including some degree of muscle dysfunction and elevated serum CK concentrations. […] These adverse events included diarrhea in 1 patient; abdominal pain in 1 patient; and flatulence in 2 patients. […] Treatment compliance was good, with patients taking >95% of the intended total drug treatment for 28 days at the lower dose level. […]

[3] = Plasma exposure, additional DMD Phase 2 study
Protocol: as §1
3-[5-(2-fluoro-phenyl)[1,2,4]oxadiazol-3-yl]-benzoic acid safely induces full-length dystrophin expression in vitro and in vivo and decreases serum CK levels in boys with nonsense-mutation-mediated DMD. […] Evaluation at the high dose level in 12 additional boys is ongoing.

[4] = Body weight, CF Phase 2 study
Description: 3-[5-(2-Fluoro-phenyl)-[1,2,4]oxadiazol-3-yl]-benzoic acid was provided in a formulation described herein.
Statistically significant results and positive trends for secondary endpoints were also observed. In particular, although the trials were not been powered to detect statistical significant changes in secondary endpoints, statistically significant improvements from study entry to the end of the higher-dose treatment cycle in the patients' mean FEV1, FVC and weight were observed.

[5] = Safety, tolerability and compliance, DMD Phase 2 interim (6 patients)
Protocol: as §2
Six patients were administered 3-[5-(2-fluoro-phenyl)-[1,2,4]oxadiazol-3-yl]-benzoic acid TID in a regimen consisting of 4 mg/kg with breakfast, 4 mg/kg with lunch, and 8 mg/kg with supper, for a total daily dose of 16 mg/kg. All patients were ambulatory, but had characteristic signs and symptoms of DMD, including some degree of muscle dysfunction and elevated serum CK concentrations. […] These adverse events included diarrhea in 1 patient; abdominal pain in 1 patient; and flatulence in 2 patients. […] Treatment compliance was good, with patients taking >95% of the intended total drug treatment for 28 days at the lower dose level.

[6] = system: serum CK; assay: Serum CK levels, DMD Phase 2; settings: boys with nonsense-mutation-mediated DMD, 28 days
Protocol: Serum CK activity is assessed using a commercially available NADH-linked kinetic assay (Diagnostic Chemicals Ltd., Oxford, Conn.). Serum CK levels are measured prior to treatment, on day 1 (prior to first dose), day 7, day 14, day 21, and day 27 during the treatment period, and on day 42 and day 56 after treatment. Serum CK is increased in Duchenne muscular dystrophy and therefore is a readily measurable diagnostic marker for the disease and may serve as a potential biomarker for the pharmacological activity of the drug (Mendell et al., 1989, New Eng. J. Med. 320(24):1592-1597).
3-[5-(2-fluoro-phenyl)-[1,2,4]oxadiazol-3-yl]-benzoic acid was administered orally for 28 days at dose levels of 4, 4, 8 mg/kg (low dose); 10, 10, 20 mg/kg (mid dose); and 20, 20, 40 mg/kg (high dose) after breakfast, lunch, and dinner, respectively. 26 boys (ages: 5-13 years; stop codons: 15 UGA, 6 UAG, 5 UAA; baseline serum CK: 8,645-49,500 IU; steroid use: 19/26) completed 3-[5-(2-fluoro-phenyl)-[1,2,4]oxadiazol-3-yl]-benzoic acid at the low (n=6) or mid (n=20) dose levels. […] Compliance was >98% for both dose levels. Day 1 and Day 28 PK indicate stable plasma exposures over time; however, exposures were lower than in 3-[5-(2-fluoro-phenyl)-[1,2,4]oxadiazol-3-yl]-benzoic acid-treated healthy adult volunteers and cystic fibrosis patients. […]

[7] = 6 DMD patients, 4, 4, 8 mg/kg TID
[8] = of 6 DMD patients, 4, 4, 8 mg/kg TID

Cmin ([2]; Day 1, N = 6, mean): 500 ng/mL
Cmin ([2]; Day 27, N = 6, mean): 600 ng/mL
Plasma exposures over time ([3]; Day 1 and Day 28 PK): stable
Plasma exposures relative to treated healthy adult volunteers and cystic fibrosis patients ([3]; boys with DMD): lower
Compound: O=C(O)c1cccc(-c2noc(-c3ccccc3F)n2)c1 [3-[5-(2-fluoro-phenyl)-[1,2,4]oxadiazol-3-yl]-benzoic acid]
Severity of adverse events and laboratory abnormalities ([1]; 26 boys, low (n=6) or mid (n=20) dose, 28 days oral): mild-moderate
Dose relation of adverse events and laboratory abnormalities ([1]; low 4, 4, 8 mg/kg versus mid 10, 10, 20 mg/kg): no dose-related changes in frequency or severity
Drug accumulation / induction of metabolism ([2]; 27-day treatment interval between sampling periods): neither evidence of drug accumulation nor evidence of decreased drug levels due to the induction of metabolism
Plasma exposures relative to those associated with maximal preclinical activity ([3]; low and mid dose levels): did not achieve plasma exposures associated with maximal preclinical activity
Weight, End of Higher Dose Treatment ([4]; study entry 58.3 kg): 59.0 kg
Weight, Change ([4]; study entry to end of higher dose treatment): 0.7 kg
Discontinuation of treatment due to an adverse event ([5]; 6 DMD patients): No patient discontinued treatment
Physical examinations, vital sign measurements, electrocardiograms [5, 7]: no safety concerns
Serum liver enzymes, bilirubin, creatinine, blood urea nitrogen [5, 7]: No clinically significant elevations
Serious drug-related adverse events ([5]; 6 DMD patients, 4, 4, 8 mg/kg TID, 28 days): No serious drug-related adverse events
Severity of potentially drug-related adverse events ([5]; 6 DMD patients, 4, 4, 8 mg/kg TID, preliminary): mild
Abdominal pain, number of patients [5, 8]: 1
Diarrhea, number of patients [5, 8]: 1
Flatulence, number of patients [5, 8]: 2
Serum CK levels during administration [6]: decreased significantly
